The structures appear in SMILES notation. Entries after “also recorded” stand apart in the source; their conditions may differ.

The subject of data set [1] is carrageenan-based footpad-edema model. The data set can be described thus: Carrageenan footpad edema model, local injection 48 h post carrageenan. It counts as in vivo, mice. Particulars: 30 μl, injected 48 h post carrageenan; for subsequent footpad swelling after local injection: 2 mM. The protocol: (§1) Mice Carrageenan Footpad Edema Model. Carrageenan (C1867, Sigma-Aldrich®, 2% in PBS, 30 μl) was injected into the right footpad while PBS (30 μl) was injected in the left footpad as a negative control. For preliminary testing of CFZ as an anti-inflammatory agent, 8-week orally fed mice (CFZ and control) were used. For testing of CFZ in soluble and microcrystal form, naïve 4-5 week old mice were injected with carrageenan first followed by injection of CFZ-A (2 mM in DMSO, 30 μl), CLDIs (2 mM equivalent in PBS, 30 μl) or CFZ-HCl (2 mM equivalent in PBS, 30 μl) at 48 h post carrageenan injection. For control experiments, CFZ-A, CLDIs and CFZ-HCl were injected into the right footpads of naïve 4-5 week old mice. DMSO was used as a control for CFZ-A in the left footpad whereas PBS was used as a control for CLDIs and CFZ-HCl. Footpads were measured (length—l, width—w, three thicknesses—t1, t2, t3) at various time points using a digital vernier calliper and changes in the swelling based on volume of the foot was calculated as per above.

Another data set relates to footpad swelling. The data set can be described thus: Footpad injections alone in naïve mice. The data set is classed as in vivo. As to conditions: 2 mM, 30 μl. The procedure: as §1

`CC(C)N=c1cc2n(-c3ccc(Cl)cc3)c3ccccc3nc-2cc1Nc1ccc(Cl)cc1.Cl` [CFZ-A]: the “subsequent footpad swelling after local injection” value in data set [1] is “did not lead to a measurable anti-inflammatory response”. In addition, the “inflammation/swelling after injection alone” value in the data set with footpad swelling is “measurable inflammatory response initially; also recorded: some swelling”.

Consider `CC(C)N=c1cc2n(-c3ccc(Cl)cc3)c3ccccc3nc-2cc1Nc1ccc(Cl)cc1.Cl` [CFZ-HCl], for which, in data set [1] (2 mM equivalent), the “footpad swelling inhibition beyond 24 h post therapy” value is recorded as “sustained for a further 24 h”. Also, in data set [1], the “subsequent footpad swelling after local injection” value is on record as “inhibited for 24 h post therapy”. The “inflammation/swelling after injection alone” value with footpad swelling is listed as “did not induce any measurable inflammation; also recorded: no signs of swelling”.

The record behind these values is patent US20160220710A1, “COMPOSITIONS AND METHODS FOR DELIVERING PHARMACEUTICAL AGENTS” (THE REGENTS OF THE UNIVERSITY OF MICHIGAN, priority 2015, published 2016).
